The target of experiment [1] is Mast/stem cell growth factor receptor Kit (Homo sapiens) (UniProt P10721). To be noted: dose 10.0 nM.
Description: Inhibition of human c-KIT at 10 nM using poly[Glu:Tyr] (4:1) as substrate in presence of [gamma-33P]-ATP by radiometric assay relative to control
Experiment [2] has the same target. To be noted: dose 100.0 nM.
Description: Inhibition of human c-KIT at 100 nM using poly[Glu:Tyr] (4:1) as substrate in presence of [gamma-33P]-ATP by radiometric assay relative to control
The target in experiment [3] is Receptor-type tyrosine-protein kinase FLT3 (Homo sapiens) (UniProt P36888). To be noted: dose 100.0 nM.
The target is the same in experiment [4]. To be noted: dose 10.0 nM.
For experiment [5], the target named is T1, Macrophage colony-stimulating factor 1 receptor (Mus musculus) (UniProt P09581).
T1 sequence (whole entry): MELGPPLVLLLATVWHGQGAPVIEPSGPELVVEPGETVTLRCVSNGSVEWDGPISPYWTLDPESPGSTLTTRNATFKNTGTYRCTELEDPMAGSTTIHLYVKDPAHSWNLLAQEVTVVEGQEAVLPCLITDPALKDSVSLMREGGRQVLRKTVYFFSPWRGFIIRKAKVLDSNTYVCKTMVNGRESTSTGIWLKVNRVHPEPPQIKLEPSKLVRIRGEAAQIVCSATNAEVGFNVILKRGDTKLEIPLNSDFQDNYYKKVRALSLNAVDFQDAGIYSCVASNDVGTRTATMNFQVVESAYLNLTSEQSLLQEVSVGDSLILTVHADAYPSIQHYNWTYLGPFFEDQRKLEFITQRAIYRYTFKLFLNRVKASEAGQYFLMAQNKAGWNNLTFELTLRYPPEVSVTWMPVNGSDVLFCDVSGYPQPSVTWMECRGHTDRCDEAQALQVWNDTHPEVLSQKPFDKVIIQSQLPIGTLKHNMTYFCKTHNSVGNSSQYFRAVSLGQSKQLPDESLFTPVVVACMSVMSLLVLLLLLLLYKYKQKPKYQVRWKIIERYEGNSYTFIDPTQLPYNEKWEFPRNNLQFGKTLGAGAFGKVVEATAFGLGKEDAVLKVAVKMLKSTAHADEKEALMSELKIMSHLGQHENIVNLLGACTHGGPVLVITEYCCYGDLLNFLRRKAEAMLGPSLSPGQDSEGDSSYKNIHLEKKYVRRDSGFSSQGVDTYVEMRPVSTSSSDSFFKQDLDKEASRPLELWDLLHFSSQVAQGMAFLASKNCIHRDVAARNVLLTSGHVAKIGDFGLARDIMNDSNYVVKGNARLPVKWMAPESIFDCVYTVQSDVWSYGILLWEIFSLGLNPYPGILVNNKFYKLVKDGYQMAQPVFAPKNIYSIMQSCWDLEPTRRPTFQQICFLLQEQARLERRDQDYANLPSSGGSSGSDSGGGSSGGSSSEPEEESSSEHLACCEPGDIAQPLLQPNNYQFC
In words: Inhibition of CSF1R phosphorylation in mouse RAW 264.7 cells at 10 to 100 nM preincubated for 5 hrs followed by CSF stimulation for 10 mins by Western blot analysis. In kind it is cell-based. To be noted: RAW264.7, dose 10-100 nM, time 310.0 min. (A western blot detects proteins with antibodies after separation by electrophoresis.)

For experiment [6], the target named is Macrophage colony-stimulating factor 1 receptor (Homo sapiens) (UniProt P07333). To be noted: dose 10.0 nM.
Sequence of Macrophage colony-stimulating factor 1 receptor (Homo sapiens) (P07333 whole entry): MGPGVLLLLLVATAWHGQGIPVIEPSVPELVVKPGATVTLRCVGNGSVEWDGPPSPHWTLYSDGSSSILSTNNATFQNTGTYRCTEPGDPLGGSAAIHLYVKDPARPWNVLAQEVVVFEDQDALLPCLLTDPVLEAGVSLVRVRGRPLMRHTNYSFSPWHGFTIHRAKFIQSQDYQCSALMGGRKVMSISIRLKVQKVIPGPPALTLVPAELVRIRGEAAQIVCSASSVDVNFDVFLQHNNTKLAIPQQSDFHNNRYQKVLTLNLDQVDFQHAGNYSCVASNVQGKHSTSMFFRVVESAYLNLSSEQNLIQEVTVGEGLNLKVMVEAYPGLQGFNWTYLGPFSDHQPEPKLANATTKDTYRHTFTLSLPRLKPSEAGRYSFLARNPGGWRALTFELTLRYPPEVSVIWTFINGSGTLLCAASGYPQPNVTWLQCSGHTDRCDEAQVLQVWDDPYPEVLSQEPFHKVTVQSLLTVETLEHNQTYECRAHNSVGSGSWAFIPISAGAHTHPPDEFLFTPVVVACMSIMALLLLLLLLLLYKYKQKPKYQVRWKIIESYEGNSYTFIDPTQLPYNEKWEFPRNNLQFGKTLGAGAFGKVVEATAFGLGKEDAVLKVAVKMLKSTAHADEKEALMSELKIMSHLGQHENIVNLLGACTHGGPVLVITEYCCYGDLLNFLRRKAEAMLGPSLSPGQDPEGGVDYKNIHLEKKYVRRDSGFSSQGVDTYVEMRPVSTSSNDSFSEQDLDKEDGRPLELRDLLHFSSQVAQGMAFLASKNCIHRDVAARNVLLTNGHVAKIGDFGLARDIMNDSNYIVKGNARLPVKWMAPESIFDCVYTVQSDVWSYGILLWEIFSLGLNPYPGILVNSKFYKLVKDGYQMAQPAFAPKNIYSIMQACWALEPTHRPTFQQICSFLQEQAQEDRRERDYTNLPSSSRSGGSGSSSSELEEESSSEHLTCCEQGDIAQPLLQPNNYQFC
Description: Inhibition of human CSF1R at 10 nM using poly[Glu:Tyr] (4:1) as substrate in presence of [gamma-33P]-ATP by radiometric assay relative to control
For experiment [7] the target is unchanged. To be noted: dose 100.0 nM.
Description: Inhibition of human CSF1R at 100 nM using poly[Glu:Tyr] (4:1) as substrate in presence of [gamma-33P]-ATP by radiometric assay relative to control

Calls of active or inactive are those of the source. No cut-off for these calls is given here.

Sequence of Mast/stem cell growth factor receptor Kit (Homo sapiens) (P10721 whole entry): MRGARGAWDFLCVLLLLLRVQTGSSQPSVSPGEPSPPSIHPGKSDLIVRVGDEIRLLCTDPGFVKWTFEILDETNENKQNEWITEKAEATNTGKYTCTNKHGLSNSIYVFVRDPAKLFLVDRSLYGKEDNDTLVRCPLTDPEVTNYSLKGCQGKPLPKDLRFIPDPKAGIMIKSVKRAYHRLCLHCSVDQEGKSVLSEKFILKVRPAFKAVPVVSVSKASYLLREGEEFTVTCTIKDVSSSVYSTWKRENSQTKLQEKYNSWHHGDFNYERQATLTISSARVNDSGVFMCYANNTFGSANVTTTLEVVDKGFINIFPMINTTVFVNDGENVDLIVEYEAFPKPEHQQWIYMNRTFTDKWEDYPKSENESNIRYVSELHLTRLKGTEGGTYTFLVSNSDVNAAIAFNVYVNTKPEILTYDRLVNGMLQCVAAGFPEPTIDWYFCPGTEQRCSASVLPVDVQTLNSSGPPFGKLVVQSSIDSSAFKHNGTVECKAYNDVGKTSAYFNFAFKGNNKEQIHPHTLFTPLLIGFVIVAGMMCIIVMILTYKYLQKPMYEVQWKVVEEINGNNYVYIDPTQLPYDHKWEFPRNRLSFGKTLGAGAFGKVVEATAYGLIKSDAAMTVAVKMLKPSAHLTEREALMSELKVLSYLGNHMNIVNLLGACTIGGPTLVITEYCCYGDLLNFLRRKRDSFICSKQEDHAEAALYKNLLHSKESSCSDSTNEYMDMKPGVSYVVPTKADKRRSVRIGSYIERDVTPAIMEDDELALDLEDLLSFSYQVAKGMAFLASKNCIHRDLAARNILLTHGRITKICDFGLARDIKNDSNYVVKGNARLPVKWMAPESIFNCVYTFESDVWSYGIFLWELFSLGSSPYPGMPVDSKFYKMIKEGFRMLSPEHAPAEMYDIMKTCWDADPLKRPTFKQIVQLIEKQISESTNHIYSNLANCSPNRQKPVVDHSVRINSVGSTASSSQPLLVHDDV
Sequence of Receptor-type tyrosine-protein kinase FLT3 (Homo sapiens) (P36888 whole entry): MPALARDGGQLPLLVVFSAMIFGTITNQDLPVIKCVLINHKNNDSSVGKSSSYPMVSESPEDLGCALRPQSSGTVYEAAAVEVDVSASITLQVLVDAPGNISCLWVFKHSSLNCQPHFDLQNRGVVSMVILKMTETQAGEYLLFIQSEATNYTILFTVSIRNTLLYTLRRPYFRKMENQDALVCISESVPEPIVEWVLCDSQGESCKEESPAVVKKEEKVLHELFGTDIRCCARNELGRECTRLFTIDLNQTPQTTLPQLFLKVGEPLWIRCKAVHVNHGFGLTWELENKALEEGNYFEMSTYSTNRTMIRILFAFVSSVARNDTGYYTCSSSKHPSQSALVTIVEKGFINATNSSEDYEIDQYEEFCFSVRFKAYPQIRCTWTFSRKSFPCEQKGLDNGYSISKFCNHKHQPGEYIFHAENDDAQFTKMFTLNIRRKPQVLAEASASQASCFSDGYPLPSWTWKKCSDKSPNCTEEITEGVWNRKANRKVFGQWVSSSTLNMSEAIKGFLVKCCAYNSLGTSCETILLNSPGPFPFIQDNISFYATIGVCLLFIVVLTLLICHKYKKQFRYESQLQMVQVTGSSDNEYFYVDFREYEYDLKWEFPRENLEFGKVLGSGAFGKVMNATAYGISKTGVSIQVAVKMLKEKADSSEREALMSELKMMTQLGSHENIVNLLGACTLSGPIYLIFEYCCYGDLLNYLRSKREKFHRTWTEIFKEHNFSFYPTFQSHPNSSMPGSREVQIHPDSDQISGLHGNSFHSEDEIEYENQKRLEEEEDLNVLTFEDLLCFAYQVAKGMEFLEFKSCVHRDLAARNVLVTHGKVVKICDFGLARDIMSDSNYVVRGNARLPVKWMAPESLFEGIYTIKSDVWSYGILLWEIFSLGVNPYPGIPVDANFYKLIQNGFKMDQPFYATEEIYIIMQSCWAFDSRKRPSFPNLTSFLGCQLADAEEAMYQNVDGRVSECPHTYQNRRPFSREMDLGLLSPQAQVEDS

As to `Cc1cn(-c2cc(NC(=O)c3ccc(C)c(NC(=O)c4cnc5ccccn45)c3)cc(C(F)(F)F)c2)cn1`, the inhibition is 0% in experiment [1] and 33% in experiment [2].
In the same order, the values of `CCN1CCN(Cc2ccc(C(=O)Nc3ccc(C)c(NC(=O)c4cnc5ccccn45)c3)cc2C(F)(F)F)CC1` are 30% and 70%.
Consider `Cc1ccc(NCc2ccc(C(F)(F)F)nc2)cc1NC(=O)c1cnc2cccnn12`, for which the inhibition in experiment [1] was found to be 6%; in experiment [2], 25%.
For `CCN1CCN(Cc2ccc(C(=O)Nc3ccc(C)c(NC(=O)c4cnnc5ccccc45)c3)cc2C(F)(F)F)CC1`, the figures for the inhibition in experiment [1] and in experiment [2] were 10% and 40%, respectively.
On the same counts, the results for `CCN1CCN(Cc2ccc(C(=O)Nc3ccc(C)c(NC(=O)c4cnc5ncccn45)c3)cc2C(F)(F)F)CC1` are 10% and 49%.
For the compound `FC(F)(F)c1ccc(CNc2ccc(Cc3c[nH]c4ncc(Cl)cc34)cn2)cn1`, the inhibition in experiment [3] was 11%; in experiment [1], 13%; in experiment [4], 1%; in experiment [2], 51%.
For `Cc1ccc(NC(=O)c2ccc(C(F)(F)F)nc2)cc1NC(=O)c1cnc2cccnn12`, the inhibition in experiment [1] worked out at 4%; in experiment [2], 32%.
In the case of `CCN1CCN(Cc2ccc(C(=O)Nc3ccc(C)c(NCc4cnc5ccc(OC)nn45)c3)cc2C(F)(F)F)CC1`, the inhibition in experiment [1] amounted to 25%; in experiment [2], 63%.
On the same counts, the results for `CCN1CCN(Cc2ccc(C(=O)Nc3ccc(C)c(NC(=O)c4cnn5ccccc45)c3)cc2C(F)(F)F)CC1` are 27% and 73%.
As to `CCN1CCN(Cc2ccc(C(=O)Nc3ccc(C)c(NC(=O)c4cnc5cccnn45)c3)cc2C(F)(F)F)CC1`, the inhibition turned out to be 27% in experiment [1] and 64% in experiment [2].
On to `Cc1cn(-c2cc(NC(=O)c3ccc(C)c(NC(=O)c4cnc5cccnn45)c3)cc(C(F)(F)F)c2)cn1`, for which the inhibition in experiment [1] was 7%; in experiment [2] it was 50%.
As to `CCN1CCN(Cc2ccc(C(=O)Nc3ccc(C)c(NCc4cnc5cccnn45)c3)cc2C(F)(F)F)CC1`, the inhibition was 22% in experiment [1] and 49% in experiment [2].
Consider `Cc1ccc(NCc2ccc(C(F)(F)F)nc2)cc1NC(=O)c1cnn2ccccc12`, for which the inhibition in experiment [1] stood at 17%; in experiment [2], 45%.
For the compound `Cc1ccc(NC(=O)c2ccc(C(F)(F)F)nc2)cc1NC(=O)c1cnn2ccccc12`, the inhibition in experiment [1] came out at 30%; in experiment [2], 53%. For the same compound, in experiment [5], the inhibition result was “Active”.
`CCN1CCN(Cc2ccc(C(=O)Nc3ccc(C)c(NC(=O)c4c[nH]cn4)c3)cc2C(F)(F)F)CC1`: the inhibition in experiment [1] was 41%; in experiment [2], 89%.
Consider `CCN1CCN(Cc2ccc(C(=O)Nc3ccc(C)c(NC(=O)c4n[nH]c5ncccc45)c3)cc2C(F)(F)F)CC1`, for which the figures for the inhibition in experiment [1] and in experiment [2] were 96% and 98%, respectively.
As for `CCN1CCN(Cc2ccc(NC(=O)c3ccc(C)c(NC(=O)c4cnc5cccnn45)c3)cc2C(F)(F)F)CC1`, the inhibition in experiment [1] came to 96%; in experiment [2], 98%.
Consider `Cc1ccc(NCc2ccc(C(F)(F)F)nc2)cc1NC(=O)c1cnc2ccccn12`, for which the inhibition was found to be 14% in experiment [1] and 56% in experiment [2].
Consider `Cc1cn(-c2cc(NC(=O)c3ccc(C)c(Nc4nccc(-c5cccnc5)n4)c3)cc(C(F)(F)F)c2)cn1`, for which the inhibition in experiment [3] came out at 4%; in experiment [6], 14%; in experiment [1] it was 2%; in experiment [4] it was 0%; in experiment [2], 33%.
For `CCN1CCN(Cc2ccc(C(=O)Nc3ccc(C)c(NC(=O)c4ccn(C)n4)c3)cc2C(F)(F)F)CC1`, the inhibition was 14% in experiment [1] and 54% in experiment [2].
As for `CCN1CCN(Cc2ccc(C(=O)Nc3ccc(C)c(NC(=O)c4n[nH]c5ccccc45)c3)cc2C(F)(F)F)CC1`, the inhibition amounted to 43% in experiment [1] and 89% in experiment [2].
On to `COc1ccc(COc2ccc(Cc3cnc(N)nc3N)cc2OC)cc1`, for which the inhibition is 11% in experiment [3], 4% in experiment [1], 4% in experiment [4] and 8% in experiment [2].
On to `CCN1CCN(Cc2ccc(C(=O)Nc3ccc(C)c(NC(=O)c4cc[nH]n4)c3)cc2C(F)(F)F)CC1`, for which the inhibition was 0% in experiment [1] and 17% in experiment [2].
For `CNC(=O)c1cc(Oc2ccc3nc(N[C@H]4CCCC[C@H]4O)sc3c2)ccn1`, the inhibition in experiment [3] was 20%; in experiment [7] it was 94%; in experiment [6], 76%; in experiment [1], 2%; in experiment [4], 19%; in experiment [2], 2%.
`CCN1CCN(Cc2ccc(C(=O)Nc3ccc(C)c(NC(=O)c4ncc[nH]4)c3)cc2C(F)(F)F)CC1`: the inhibition in experiment [1] was 31%; in experiment [2], 81%.

The term inhibition denotes the share of the control response that was lost under treatment.

The values above are taken from ChEMBL document CHEMBL4813977, “Discovery of potent colony-stimulating factor 1 receptor inhibitors by replacement of hinge-binder moieties” (Eur J Med Chem, 2021).
